From patent publication US9738604B2, “Ethynylbenzene derivatives” (Duke University, priority 2010, dated 2017)

How the values were obtained:
Format in all cases: cell-based
E. coli W3110RL = assay: microbe, parasite or virus in culture; details: E. coli with lpxC of R. leguminosarum; 22 hours at 37° C., MTT
E. coli W3110PA = assay: microbe, parasite or virus in culture; details: E. coli with lpxC of P. aeruginosa; 22 hours at 37° C., MTT
P. aeruginosa (PAO1) = assay: MIC, P. aeruginosa; details: P. aeruginosa PAO1; 22 hours at 37° C., MTT
E. coli W3110 = assay: microbe, parasite or virus in culture

SMILES	MIC E. coli W3110RL (E. coli W3110RL)	MIC E. coli W3110PA (E. coli W3110PA)	MIC P. aeruginosa (PAO1) (P. aeruginosa (PAO1))	MIC E. coli W3110 (E. coli W3110)
CSCC[C@H](NC(=O)c1ccc(C#CC#Cc2ccc(N)cc2)cc1)C(=O)NO [CPD-028, (2S)-2-({4′-(4′-(4′-aminophenyl)buta-1′,3′-diyn-1-yl]phenyl}formamido)-N-hydroxy-4-(methylsulfanyl)butanamide]	E (>100 μg/mL)	E (>100 μg/mL)	E (>100 μg/mL)	A (key: A: <1 μg/mL; B: 1-10 μg/mL; C: 11-50 μg/mL; D: 51-100 μg/mL; E: >100 μg/mL)
Nc1ccc(C#CC#Cc2ccc(C(=O)N[C@@H](Cc3c[nH]c4ccccc34)C(=O)NO)cc2)cc1 [CPD-029, (2S)-2-({4′-[4′-(4′-aminophenyl)buta-1′,3′-diyn-1′-yl]phenyl}formamido)-N-hydroxy-3-(1′H-indol-3′-yl)propanamide]	E (>100 μg/mL)	E (>100 μg/mL)	E (>100 μg/mL)	B (key: A: <1 μg/mL; B: 1-10 μg/mL; C: 11-50 μg/mL; D: 51-100 μg/mL; E: >100 μg/mL)
Nc1ccc(C#CC#Cc2ccc(C(=O)N3CCC[C@H]3C(=O)NO)cc2)cc1 [CPD-031, (2S)-1-({4′-[4′-(4′-aminophenyl)buta-1′,3′-diyn-1-yl]phenyl}carbonyl)-N-hydroxypyrrolidine-2-carboxamide]	E (>100 μg/mL)	E (>100 μg/mL)	E (>100 μg/mL)	C (key: A: <1 μg/mL; B: 1-10 μg/mL; C: 11-50 μg/mL; D: 51-100 μg/mL; E: >100 μg/mL)
NCCCC[C@H](NC(=O)c1ccc(C#CC#Cc2ccc(N)cc2)cc1)C(=O)NO [CPD-032, (2S)-6-amino-2-({4′-[4′-(4′-aminophenyl)buta-1′,3′-diyn-1-yl]phenyl}formamido)-N-hydroxyhexanamide]	D (51-100 μg/mL)	C (11-50 μg/mL)	C (11-50 μg/mL)	C (key: A: <1 μg/mL; B: 1-10 μg/mL; C: 11-50 μg/mL; D: 51-100 μg/mL; E: >100 μg/mL)
Nc1ccc(C#CC#Cc2ccc(C(=O)N[C@@H](Cc3ccc(O)cc3)C(=O)NO)cc2)cc1 [CPD-033, (2S)-2-({4′-[4′-(4′-aminophenyl)buta-1′,3′-diyn-1′-yl]phenyl}formamido)-N-hydroxy-3′-(4′-hydroxyphenyl)propanamide]	E (>100 μg/mL)	B (1-10 μg/mL)	C (11-50 μg/mL)	B (key: A: <1 μg/mL; B: 1-10 μg/mL; C: 11-50 μg/mL; D: 51-100 μg/mL; E: >100 μg/mL)
N=C(N)NCCC[C@H](NC(=O)c1ccc(C#CC#Cc2ccc(N)cc2)cc1)C(=O)NO [CPD-034, (2S)-2-({4′-[4′-(4′-aminophenyl)buta-1′,3′-diyn-1-yl]phenyl}formamido)-5′-carbamimidamido-N-hydroxypentanamide]	D (51-100 μg/mL)	D (51-100 μg/mL)	C (11-50 μg/mL)	C (key: A: <1 μg/mL; B: 1-10 μg/mL; C: 11-50 μg/mL; D: 51-100 μg/mL; E: >100 μg/mL)
C[C@@H](O)[C@H](NC(=O)c1ccc(C#CC#Cc2ccc(N)nc2)cc1)C(=O)NO [CPD-035, (2S,3R)-2-{4′-[[(2″-amino)pyridin-5″-yl]buta-1′,3′-diynyl]benzamido}-1,3-dihydroxybutanamide]	C (11-50 μg/mL)	B (1-10 μg/mL)	A (<1 μg/mL)	A (key: A: <1 μg/mL; B: 1-10 μg/mL; C: 11-50 μg/mL; D: 51-100 μg/mL; E: >100 μg/mL)
C[C@@H](O)[C@H](NC(=O)c1ccc(C#CC#Cc2cnc(N)nc2)cc1)C(=O)NO [CPD-036, (2S,3R)-2-{4′-[[(2″-amino)pyrimidin-5″-yl]buta-1′,3′-diynyl]benzamido}-1,3-dihydroxybutanamide]	E (>100 μg/mL)	B (1-10 μg/mL)	A (<1 μg/mL)	B (key: A: <1 μg/mL; B: 1-10 μg/mL; C: 11-50 μg/mL; D: 51-100 μg/mL; E: >100 μg/mL)
